Our source for the EC50 values is paper doi:10.1101/2021.05.28.446239v2 (biorxiv, 2021).

Assay [1] relates to truncated lungfish MR (MR-CDE). The experiment in a line: luciferase reporter transactivation. The assay is classed as cell-based, Protopterus dolloi. Particulars: agonist; HEK293, TAT3-luc promoter. On the technique in general: In a reporter assay the amount or activity of a reporter protein is the signal.
A further assay has as its system full-length lungfish MR. The assay can be described thus: luciferase reporter transactivation. The assay is classed as cell-based, Protopterus dolloi. Particulars: agonist; HEK293, TAT3-luc promoter.

Regarding `C[C@]12CCC(=O)C=C1CC[C@@H]1[C@@H]2[C@@H](O)C[C@@]2(C)[C@H]1CC[C@]2(O)C(=O)CO` [cortisol], the EC50 came out at 86700 pM in assay [1] and 66100 pM with full-length lungfish MR.

As for `C[C@]12CC[C@H]3[C@@H](CCC4=CC(=O)CC[C@@]43C)[C@@H]1CC[C@@H]2C(=O)CO` [11-deoxycorticosterone], the concentration giving a half-maximal response (EC50) in assay [1] stood at 130 pM; in the assay on full-length lungfish MR it was 40 pM.

Take `CC(=O)[C@H]1CC[C@H]2[C@@H]3CCC4=CC(=O)CC[C@]4(C)[C@H]3CC[C@]12C` [progesterone]: the EC50 amounted to 44 pM in assay [1] and 30 pM in the assay with full-length lungfish MR.

As to `C[C@@H]1C[C@H]2[C@@H]3CCC4=CC(=O)C=C[C@]4(C)[C@@]3(F)[C@@H](O)C[C@]2(C)[C@@]1(O)C(=O)CO` [dexamethasone], the EC50 came to 7700 pM in assay [1] and 4700 pM in the assay on full-length lungfish MR.

`C[C@]12CCC(=O)C=C1CC[C@@H]1[C@@H]2CC[C@@]2(C)[C@H]1CC[C@]2(O)C(=O)CO` [11-deoxycortisol]: the EC50 in assay [1] came to 270 pM; in the assay with full-length lungfish MR, 170 pM.

Turning to `C[C@]12C=CC(=O)C=C1CC[C@H]1[C@@H]3C[C@@H](O)[C@](O)(C(=O)CO)[C@@]3(C)C[C@H](O)[C@@]12F` [triamcinolone], the EC50 in assay [1] stood at 2400 pM; in the assay with full-length lungfish MR it was 1300 pM.

Regarding `C[C@]12CCC(=O)C=C1CC[C@@H]1[C@@H]2[C@@H](O)C[C@]2(C=O)[C@@H](C(=O)CO)CC[C@@H]12` [aldosterone], the values for the EC50 (in assay [1]; in the assay with full-length lungfish MR) were 240 pM and 40 pM, respectively.

Take `C[C@]12C[C@H](O)[C@H]3[C@@H](CCC4=CC(=O)CC[C@@]43C)[C@@H]1CC[C@@H]2C(=O)CO` [corticosterone]: the 50% effective concentration (EC50) is 85500 pM in assay [1] and 23100 pM with full-length lungfish MR.

The term EC50 denotes the concentration giving half of the maximal effect. Low values mean a more potent agent, high ones a less potent agent.
